Tested on: 855422-203-R-J1-PDC complex spheroids, viability
Experiment: Anticancer human tumor 855422-203-R-J1-PDC patient-derived bladder carcinoma cell line growth inhibition [CLK]
Conditions: for IC50: curve of first compound; for viability, T/C: stronger effect = lower value
Excerpt: A high-throughput screen of multi-cell type tumor spheroids was designed to identify active combinations of […] and targeted small molecules. Complex spheroids include a stromal component modeled by human endothelial cells (HUVEC) and fibroblasts modeled by human mesenchymal stem cells (MSCs). The concentration ranges selected for each drug and investigational agent were based upon clinically achievable concentrations if the clinical Cmax of the agent was known.
Compounds. The drugs and investigational agents: cirtuvivint (SM08502; NSC835563), CC-671 (NSC850746), vemurafenib (NSC761431), tapotoclax (NSC804041), sotorasib (NSC818433), adagrasib (NSC831453), MRTX-1133 (NSC836407), BAY2416964 (NSC825713), copanlisib (NSC816437), inavolisib (NSC800729), abemaciclib (NSC768073), osimertinib (NSC779217), entinostat (NSC756642), eltanexor (KPT-8602, NSC794443), venetoclax (NSC766270), ceralasertib (NSC777638), bortezomib (NSC756655), olaparib (NSC753686), talazoparib (NSC767125), alisertib (NSC759677), peposertib (NSC802822), gemcitabine (NSC613327), 5-fluorouracil (NSC19893), SN-38 (NSC673596), oxaliplatin (NSC266046), paclitaxel (NSC125973), and doxorubicin (NSC123127), were obtained from the National Cancer Institute (NCI) Developmental Therapeutics Program Chemical Repository. The FDA-approved anticancer drug set is available from the Developmental Therapeutics Program at https://dtp.cancer.gov/organization/dscb/obtaining/available plates.htm. […] The stock solutions were prepared in dimethyl sulfoxide (DMSO, Sigma-Aldrich, St. Louis, MO, cat. D2650), except for the platinum complexes which were prepared in saline (Quality Biological, Gaithersburg, MD, cat. 114-055-101), at 800-fold the tested concentration and stored at -70 degrees C prior to their use. All drugs and investigational agents were tested over a range starting from a high concentration at or near the clinical Cmax and decreasing in half-log increments. If the clinical Cmax for an agent had not been determined, the highest concentration tested was 10 microM.
Cell Culture. All cells were maintained in an incubator at 37 degrees C and 5% CO2 with 95% humidity. The PDC lines were cultured according to standard operating procedures established by the NCI PDMR. Briefly, all PDCs were thawed and cultured in Matrigel-coated flasks prepared with a working solution of 1X Ham's F-12 nutrient mix, without supplementation (Invitrogen, Waltham, MA, cat. 11765054), 100 U/mL penicillin-streptomycin (Invitrogen, cat. 15140122), and 2.5% Matrigel (Corning Inc., Corning, NY, cat. 354248) for the first three passages. The 947758-054-R-J2-PDC line was cultured in 6B/Colon 1A media, which includes advanced DMEM/F-12 (Thermo Fisher Scientific, cat. 12634028), 10 mM HEPES (Thermo Fisher Scientific, cat. 15630080), 1X GlutaMAX supplement (Thermo Fisher Scientific, cat. 35050061), 0.1 mg/mL primocin (InvivoGen, cat. ant-pm-2), 10% defined fetal bovine serum, heat inactivated (HyClone Laboratories Inc., cat. SH30070.03HI), 1.25 mM N-Acetyl-L-cysteine (Sigma-Aldrich, cat. A9165), 10 mM nicotinamide (Sigma-Aldrich, cat. N0636), 1X B-27 supplement (Thermo Fisher Scientific, cat. 17504044), 1X N-2 supplement (Thermo Fisher Scientific, cat. 17502048), and 10 microM Y-27632 dihydrochloride (Tocris Bioscience, cat. 1254). The 876862-298-R-J1-PDC was cultured in 6E media, which includes all 6B/Colon 1A media components plus 50% L-WRN conditioned media (ATCC, cat. CRL-3276), 50 ng/mL recombinant human EGF recombinant protein (hEGF; Thermo Fisher Scientific, cat. PHG0311), 10 ng/mL recombinant human fibroblast growth factor 10 (hGFG-10; PeproTech, cat. 100-26), 1 ng/mL recombinant human fibroblast growth factor 2 (hFGF-2; PeproTech, cat. 100-18B), and 1 µM prostaglandin E2 (PGE2; Tocris, cat. 2296). The 227483-062-R1-J1-PDC line was cultured in Panc media, containing all 6E components except hFGF-2, with the addition of 500 nM SB-431542 (Selleckchem, cat. S1067) and 10 nM gastrin (Tocris, cat. 3006). […]
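Also: spheroids exposed to drugs for seven days before readout.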
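For viability, T/C in this document: 100% = DMSO vehicle control wells.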

SMILES: O=c1[nH]cc(F)c(=O)[nH]1 + CNC(=O)c1ccc(Nc2nc(OC3CCCC3)c3c(-c4ccc5nc(C)oc5c4)c[nH]c3n2)c(OC)c1
- IC50 (second compound 0.0316 µM): 9090 nM
- IC50 (second compound 0.1 µM): 527 nM
- IC50 (second compound 0.316 µM): < 31.6 nM
- IC50 (second compound 1 µM): < 31.6 nM
- IC50 (second compound 3.16 µM): < 31.6 nM
- IC50 (second compound 10 µM): < 31.6 nM
- viability, T/C (second compound 0.0316 µM, first compound 0.0316 µM): 135%
- viability, T/C (second compound 0.0316 µM, first compound 0.1 µM): 119%
- viability, T/C (second compound 0.0316 µM, first compound 0.316 µM): 98.4%
- viability, T/C (second compound 0.0316 µM, first compound 1 µM): 72.3%
- viability, T/C (second compound 0.0316 µM, first compound 3.16 µM): 67.5%
- viability, T/C (second compound 0.0316 µM, first compound 10 µM): 47.9%
- viability, T/C (second compound 0.1 µM, first compound 0.0316 µM): 65.5%
- viability, T/C (second compound 0.1 µM, first compound 0.1 µM): 65.7%
- viability, T/C (second compound 0.1 µM, first compound 0.316 µM): 56.4%
- viability, T/C (second compound 0.1 µM, first compound 1 µM): 40.3%
- viability, T/C (second compound 0.1 µM, first compound 3.16 µM): 40.8%
- viability, T/C (second compound 0.1 µM, first compound 10 µM): 44.9%
- viability, T/C (second compound 0.316 µM, first compound 0.0316 µM): 26.4%
- viability, T/C (second compound 0.316 µM, first compound 0.1 µM): 22.8%
- viability, T/C (second compound 0.316 µM, first compound 0.316 µM): 22.1%
- viability, T/C (second compound 0.316 µM, first compound 1 µM): 18.4%
- viability, T/C (second compound 0.316 µM, first compound 3.16 µM): 19.7%
- viability, T/C (second compound 0.316 µM, first compound 10 µM): 18.9%
- viability, T/C (second compound 1 µM, first compound 0.0316 µM): 23.3%
- viability, T/C (second compound 1 µM, first compound 0.1 µM): 23.9%
- viability, T/C (second compound 1 µM, first compound 0.316 µM): 27.6%
- viability, T/C (second compound 1 µM, first compound 1 µM): 17.3%
- viability, T/C (second compound 1 µM, first compound 3.16 µM): 14.5%
- viability, T/C (second compound 1 µM, first compound 10 µM): 17.9%
- viability, T/C (second compound 3.16 µM, first compound 0.0316 µM): 25.1%
- viability, T/C (second compound 3.16 µM, first compound 0.1 µM): 23.8%
- viability, T/C (second compound 3.16 µM, first compound 0.316 µM): 22.1%
- viability, T/C (second compound 3.16 µM, first compound 1 µM): 16.3%
- viability, T/C (second compound 3.16 µM, first compound 3.16 µM): 12.7%
- viability, T/C (second compound 3.16 µM, first compound 10 µM): 14.7%
- viability, T/C (second compound 10 µM, first compound 0.0316 µM): 21.5%
- viability, T/C (second compound 10 µM, first compound 0.1 µM): 23.3%
- viability, T/C (second compound 10 µM, first compound 0.316 µM): 20.2%
- viability, T/C (second compound 10 µM, first compound 1 µM): 17.9%
- viability, T/C (second compound 10 µM, first compound 3.16 µM): 14.7%
- viability, T/C (second compound 10 µM, first compound 10 µM): 13.6%

From PubChem BioAssay AID2060609 (Molecular Pharmacology Branch, DTP, NCI, 2025)
